From patent US20180318383A1, “PEPTIDE HAVING NEURONAL LOSS PREVENTION AND REGENERATION EFFECTS, AND COMPOSITION CONTAINING SAME” (GEMVAX & KAEL CO., LTD., priority 2015, published 2018)

Key:
oligomer Aβ = assay: Expression level of oligomer Aβ in 3XTg-AD mice (western blotting); assay type: in vivo; settings: hippocampus and whole brain; vs control and Donepezil
Method: (§1) To test the efficacy of PEP1 on AD, AD transgenic mice (3XTg-AD) were purchased from Jackson Laboratory. Genetic characteristics of the transgenic mice are as follows: B6; 129-Psen1tm1Mpm Tg(APPSwe, tauP301L)1Lfa/Mmjax. […] One week after mice were confirmed as pregnant, new mice were delivered and weaned for 3 weeks. Two weeks later, mature mice were obtained.
(§2) During the preliminary breeding and the entire period of the experiment, a temperature was maintained at 23±2° C. and a relative humidity was maintained at 60±10%, and then the mice were raised under a 12-hour dark/light cycle. Experimental animals were divided into five groups, and each group included 10 animals. The divided experimental groups are as follows. […]
(§3) The PEP1, physiological saline, donepezil and scramble peptide were subcutaneously injected at each concentration three times a week for two months from the age of 12 months, and then two months after the injection, cognitive/memory behavior tests (passive avoidance test and Y maze test) were performed to examine a degree of improvement in cognitive function and memory function. After the brain was extracted to separate the hippocampus, the amounts of amyloid beta in the hippocampus and the whole brain, and the amounts of an amyloid beta oligomer and NFT generated by tau hyperphosphorylation were determined by western blotting and immunostaining. […]

[1] = Cell-free ROS production (DHBA level by HPLC); settings: 20 μM Aβ25-35 and PEP1 0, 1, 10, 50 μM
Method: To investigate how Aβ25-30 and PEP1 influenced ROS, a DHBA level was measured and observed by a cell-free method. This method was carried out by observing the DHBA level in a tube containing 20 μM Aβ25-30 and each concentration of PEP1 (0, 1, 10 or 50 μM) through HPLC.

[2] = system: AD transgenic mice (3XTg-AD); assay: Y-maze test; assay type: in vivo
Method: as §1, §2, §3

DCX = DCX expression in 3XTg-AD mice (western blotting, immunostaining); assay type: in vivo; settings: hippocampus and whole brain; s.c. three times a week for two months; vs control and Donepezil, same amount
Method: as §1, §2, §3

In the case of “EARPALLTSRLRFIPK (homo sapiens) [PEP1, hTERT-derived peptide consisting of 16 amino acids, telomerase location [611-626]]”, the “expression level of oligomer Aβ” value (oligomer Aβ) is reported as “decreased”, the “ROS production under a cell-free condition” value [1] is reported as “did not exhibit a significant influence” and the “behavioral judgment (Y-maze test)” value ([2]; 3XTg-AD mice, treated from age 12 months, vs control and Donepezil) is reported as “excellent behavioral judgment”. The “ability to select a new path (spontaneous alteration (%)), Y-maze test” value ([2]; severe AD models, 20-month-old or older 3XTg-AD mice, PEP1 1 mg/kg s.c., vs physiological saline) was “increased” and the DCX (DCX) was “increased”.
